Data: patent US10392412B2, “Platinum anticancer agents” (THE REGENTS OF THE UNIVERSITY OF CALIFORNIA, priority 2015, dated 2019)
“Also recorded” adds a separate entry of the source. Like-named read-outs stand apart in the source and are kept apart here. Marks after values point to notes of the source that are not given here.

Experiments:
SH-SY5Y cells = assay: Cytotoxicity CellTiter-Glo; format: cell-based, human
OVCAR2 cells = assay: Cytotoxicity CellTiter-Glo; format: cell-based, human; conditions: read-out: IC50 (50% growth inhibition); OVCAR2, Ovary; 72 hours
[1] = tested on: SK-N-DZ neuroblastoma xenografts; assay: SK-N-DZ neuroblastoma xenograft in nu/nu mice; format: in vivo, mouse
Experimental: (§1) The xenograft studies were performed by subcutaneous injection of SK-N-DZ (neuroblastoma, 30×10^6 cells/animal) and RMS13 (rhabdomyosarcoma, 20×10^6 cells/animal) in right flank of the male Charles River Laboratories nu/nu mice (7-8 weeks old, weight ˜20 g). Mice were treated by intravenous tail vein injection once a week for 4 weeks. The tumor sizes and body weights were monitored twice a week. Tumor volumes were calculated according to the following formula: volume=height×[…]×length×0.5236.

SNB75 cells = assay: Cytotoxicity CellTiter-Glo; format: cell-based, human
SAOS-2 cells = assay: Cytotoxicity CellTiter-Glo; format: cell-based, human; conditions: SAOS-2, Osteosarcoma
RMS13 cells = assay: Cytotoxicity CellTiter-Glo; format: cell-based, human; conditions: RMS13, Rhabdomyosarcoma
MG-63 cells = assay: Cytotoxicity CellTiter-Glo; format: cell-based, human; conditions: MG-63, Osteosarcoma
U87MG cells = assay: Cytotoxicity CellTiter-Glo; format: cell-based, human
A204 cells = assay: Cytotoxicity CellTiter-Glo; format: cell-based, human; conditions: A204, Rhabdomyosarcoma
HCT116 cells = assay: Cytotoxicity CellTiter-Glo; format: cell-based, human; conditions: read-out: IC50 (50% growth inhibition); HCT116, Colon; 72 hours
Experimental: (§2) Human cancer cell lines were purchased from UCSF Cell Culture Facility (CCF) or obtained through Material Transfer.
(§3) The range of platinum concentrations used in the studies are 5 μM-100 μM. After 72 hours of treatment, the medium were removed and replaced with 50 μL of the media plus 50 μL of the CellTiterGlo reagent. The number of viable cells in culture will be determined based on quantitation of the ATP present, which is an indicator of the number of active cells. Concentration response graphs were generated for each compound using GraphPad Prism software. The graphs were analyzed using a curve fit for sigmoid dose-response, and IC50 values were derived. The results were expressed as mean IC50 values with the standard error of the mean.

H226 cells = assay: Cytotoxicity CellTiter-Glo; format: cell-based, human; conditions: read-out: IC50 (50% growth inhibition); H226, Non-small cell squamous; 72 hours
Experimental: as §2, §3

HT29 cells = assay: Cytotoxicity CellTiter-Glo; format: cell-based, human; conditions: read-out: IC50 (50% growth inhibition); HT29, Colon; 72 hours
Experimental: as §2, §3

PC3 cells = assay: Cytotoxicity CellTiter-Glo; format: cell-based, human; conditions: read-out: IC50 (50% growth inhibition); PC3, Prostate; 72 hours
Experimental: as §2, §3

AsPC1 cells = assay: Cytotoxicity CellTiter-Glo; format: cell-based, human; conditions: read-out: IC50 (50% growth inhibition); AsPC1, Pancreas; 72 hours
Experimental: as §2, §3

DU145 cells = assay: Cytotoxicity CellTiter-Glo; format: cell-based, human; conditions: read-out: IC50 (50% growth inhibition); DU145, Prostate; 72 hours
Experimental: as §2, §3

SNF539 cells = assay: Cytotoxicity CellTiter-Glo; format: cell-based, human
T98G cells = assay: Cytotoxicity CellTiter-Glo; format: cell-based, human
SHEP cells = assay: Cytotoxicity CellTiter-Glo; format: cell-based, human
[2] = Maximum tolerated dose study: blood chemistry test (Table 7); conditions: mouse, in vivo, iv, 5 mg/kg
Experimental: The mice used in MTD were given standard chow devoid of added folic acid (low folate diet) (See, Leamon C P et al., J. Pharmacol. Exp. Ther. 327: 918-925). […] Therefore we also designed a MTD study in mice treated with low folate diet. Food consumption on the day before injection (Day −1) was recorded and then it was monitored every other day. […] Blood for clinical chemistry was collected if possible. Liver, kidney and bone marrow were collected. One side of each tissue (except bone marrow) will be fixed in 4-10% formalin for future histology analysis, and the rest of tissue will be cut into pieces, snap frozen, and stored at −80° C. until analysis. Blood samples for clinical chemistry were centrifuged at 8000 rpm for 10 min at 4° C. within 1 hour of collection. Plasma was collected into 1.5 mL eppendorf tubes and stored at −80° C. until analysis. The measured parameters were alanine transaminase (ALT), aspartate transaminase (AST), alkaline phosphatase (ALP), total bilirubin, glucose, blood urea nitrogen (BUN), creatinine, and electrolytes. All experiments were housed in a virus-free, temperature controlled facility on a 12-h light-dark cycle.

A2780-CP cells = assay: Cytotoxicity CellTiter-Glo; format: cell-based, human; conditions: read-out: IC50 (50% growth inhibition), Ovary, 72 hours
A2780 cells = assay: Cytotoxicity CellTiter-Glo; format: cell-based, human; conditions: read-out: IC50 (50% growth inhibition); A2780, Ovary; 72 hours
A673 cells = assay: Cytotoxicity CellTiter-Glo; format: cell-based, human
U-2 OS cells = assay: Cytotoxicity CellTiter-Glo; format: cell-based, human
U251 cells = assay: Cytotoxicity CellTiter-Glo; format: cell-based, human
PE01 cells = assay: Cytotoxicity CellTiter-Glo; format: cell-based, human; conditions: read-out: IC50 (50% growth inhibition); PE01, Ovary; 72 hours
Kelly cells = assay: Cytotoxicity CellTiter-Glo; format: cell-based, human
PE04 cells = assay: Cytotoxicity CellTiter-Glo; format: cell-based, human; conditions: read-out: IC50 (50% growth inhibition); PE04, Ovary; 72 hours
[3] = tested on: RMS13 rhabdomyosarcoma xenografts; assay: RMS13 rhabdomyosarcoma xenograft in nu/nu mice; format: in vivo, mouse
Experimental: as §1

genomic DNA = assay: Platinum-DNA adducts by ICP-MS in HEK293 cells; format: cell-based, human; conditions: 10 μM, 2 hours
Experimental: Method to quantify platinum-DNA adducts by ICP-MS has been previously described (5,6). In brief, HEK293 cells were seeded in 6-well poly-D-lysine plate (cell density=0.5×10^6 cells/well). […] After 2 hours, the cells were washed twice with cold HBBS. The platinum content associated with genomic DNA was determined as described elsewhere. Genomic DNA was isolated from the cell pellets using Genomic DNA purification kit (Promega) and the DNA-bound platinum was determined by ICP-MS, which was normalized to total DNA content (determined by absorption spectrometry at 260 nm).

[4] = read-out: IC50 (50% growth inhibition), Neuroblastoma, 72 hours
[5] = read-out: IC50 (50% growth inhibition), 72 hours
[6] = read-out: IC50 (50% growth inhibition), Brain, 72 hours

SMILES: N.N.[Cl][Pt][Cl] [Cisplatin, cisplatin, reference compound]
- GI50 (SH-SY5Y cells; Neuroblastoma): 1 ± 0.6 µM
- IC50 (SH-SY5Y cells; [4]): 1 ± 0.6 µM
- IC50 (OVCAR2 cells): 3.3 ± 1.6 µM
- tumor volume / tumor growth ([1]; SKNDZ neuroblastoma xenograft, 5 mg/kg i.v. once a week for 4 weeks): inhibited tumor growth
- survival ([1]; SKNDZ xenograft model, 5 mpk, 5 mg/kg): significant difference in survival; also recorded: increase survival rate
- IC50 (SNB75 cells; read-out: IC50 (50% growth inhibition), SNB75, Brain, 72 hours): 15.4 ± 12.6 µM
- GI50 (SAOS-2 cells): 20.5 ± 9.9 µM
- IC50 (SAOS-2 cells; [5]): 20.5 ± 9.9 µM
- GI50 (RMS13 cells): 2.5 ± 0.5 µM
- IC50 (RMS13 cells; [5]): 2.5 ± 0.5 µM
- GI50 (MG-63 cells): 5.1 ± 2.3 µM
- IC50 (MG-63 cells; [5]): 5.1 ± 2.3 µM
- IC50 (U87MG cells; [6]): 16.2 ± 12.6 µM
- GI50 (A204 cells): 4.6 ± 4.4 µM
- IC50 (A204 cells; [5]): 4.6 ± 4.4 µM
- IC50 (HCT116 cells): 2.1 ± 0.3 µM
- IC50 (H226 cells): 13.8 ± 2.8 µM
- IC50 (HT29 cells): 2.3 ± 0.4 µM
- IC50 (PC3 cells): 2.5 ± 0.3 µM
- IC50 (AsPC1 cells): 2.9 ± 0.03 µM
- IC50 (DU145 cells): 0.5 ± 0.01 µM
- IC50 (SNF539 cells; read-out: IC50 (50% growth inhibition), SNF539, Brain, 72 hours): 6.5 ± 7.2 µM
- IC50 (T98G cells; [6]): 27.5 µM
- GI50 (SHEP cells; Neuroblastoma): 4.4 ± 2.4 µM
- IC50 (SHEP cells; [4]): 4.4 ± 2.4 µM
- Cl [2]: 102.33*
- IC50 (A2780-CP cells): 8.6 ± 2.1 µM
- IC50 (A2780 cells): 1.2 ± 0.2 µM
- GI50 (A673 cells; A673, Ewing's sarcoma): 0.4 ± 0.3 µM
- IC50 (A673 cells; read-out: IC50 (50% growth inhibition), A673, Ewing's Sarcoma, 72 hours): 0.4 ± 0.3 µM
- GI50 (U-2 OS cells; Osteosarcoma): 59.3 ± 9 µM
- IC50 (U-2 OS cells; read-out: IC50 (50% growth inhibition), Osteosarcoma, 72 hours): 59.3 ± 9 µM
- IC50 (U251 cells; read-out: IC50 (50% growth inhibition), U251, Brain, 72 hours): 11.2 ± 10.8 µM
- IC50 (PE01 cells): 0.6 ± 0.4 µM
- GI50 (Kelly cells; Neuroblastoma): 7 ± 5 µM
- IC50 (Kelly cells; [4]): 7 ± 5 µM
- IC50 (PE04 cells): 4.9 ± 2 µM
- tumor volume / tumor growth ([3]; RMS13 rhabdomyosarcoma xenograft, 5 mg/kg i.v. once a week for 4 weeks): inhibited tumor growth
- survival ([3]; RMS13 xenograft model, 5 mpk): increase survival rate

SMILES: CN(Cc1cnc2nc(N)nc(N)c2n1)c1ccc(C(=O)N[C@@H](CCC(=O)O)C(=O)O)cc1 [Methotrexate, methotrexate, reference compound]
- platinum content associated with genomic DNA (platinum-DNA adducts) (genomic DNA): did not have strong intensity (binding)

SMILES: CN(Cc1cnc2nc(N)nc(N)c2n1)c1ccc(C(=O)NC(CCC(=O)O)C(=O)O)cc1.[Cl][Pt][Cl] (stereo not shown) [SM-69B]
- IC50 (HeLa R1-11 (SLC46A1)): 0.702 µM
- IC50 (SNB75 cells; read-out: IC50 ± S.D. (50% growth inhibition), SNB75, Brain - High grade, + 1 mM Folic Acid): 63.3 ± 3.3 µM
- IC50 (SNB75 cells; read-out: IC50 ± S.D. (50% growth inhibition), SNB75, Brain - High grade, two independent experiments): 11.1 ± 2.1 µM
- IC50 (U87MG cells; read-out: IC50 ± S.D. (50% growth inhibition), Brain - Low grade, + 1 mM Folic Acid): 13.9 ± 11.1 µM
- IC50 (U87MG cells; read-out: IC50 ± S.D. (50% growth inhibition), Brain - Low grade, two independent experiments): 0.96 ± 0.09 µM
- IC50 (SNF539 cells; read-out: IC50 ± S.D. (50% growth inhibition), SF539, Brain - High grade, + 1 mM Folic Acid): 43.2 ± 12.9 µM
- IC50 (SNF539 cells; read-out: IC50 ± S.D. (50% growth inhibition), SF539, Brain - High grade, two independent experiments): 0.46 ± 0.04 µM
- IC50 (T98G cells; read-out: IC50 ± S.D. (50% growth inhibition), Brain - High grade, + 1 mM Folic Acid): 5.3 ± 1.2 µM
- IC50 (T98G cells; read-out: IC50 ± S.D. (50% growth inhibition), Brain - High grade, two independent experiments): 0.31 ± 0.05 µM
- IC50 (U251 cells; read-out: IC50 ± S.D. (50% growth inhibition), U251, Brain - High grade, + 1 mM Folic Acid): 18 ± 1.4 µM
- IC50 (U251 cells; read-out: IC50 ± S.D. (50% growth inhibition), U251, Brain - High grade, two independent experiments): 0.87 ± 0.13 µM
- IC50 (HeLa R1-11 (SLC19A1)): 0.109 µM
